# Measured values as given in US9297017B2, “Methods and compositions for targeted protein degradation” (University of Washington, priority 2010, dated 2016).
# Where a chain is given by its changes, count along the chain named. Several values for one entry are separate records, joined by “and”; a condition that tells them apart may be missing. Identical values can stand only once. Like-named read-outs stand apart in the source and are kept apart here.
# What was measured:
# [1] = target: T1, COI1/JAZ1 complex (Arabidopsis thaliana, UniProt O04197+Q9LMA8); experiment: Saturation radioligand binding of 3H-coronatine to COI1/ASK1 in the presence of JAZ1
# T1 construct: Full-length Arabidopsis thaliana COI1 and ASK1 were co-expressed; Full-length JAZ substrate proteins were expressed as 6×His-fusion proteins in Escherichia coli; GST (cleaved yes); 6xHis; made in house; host or cells: Hi5 insect cells (COI1/ASK1); Escherichia coli (JAZ1)
# T1 sequence (O04197 1-592): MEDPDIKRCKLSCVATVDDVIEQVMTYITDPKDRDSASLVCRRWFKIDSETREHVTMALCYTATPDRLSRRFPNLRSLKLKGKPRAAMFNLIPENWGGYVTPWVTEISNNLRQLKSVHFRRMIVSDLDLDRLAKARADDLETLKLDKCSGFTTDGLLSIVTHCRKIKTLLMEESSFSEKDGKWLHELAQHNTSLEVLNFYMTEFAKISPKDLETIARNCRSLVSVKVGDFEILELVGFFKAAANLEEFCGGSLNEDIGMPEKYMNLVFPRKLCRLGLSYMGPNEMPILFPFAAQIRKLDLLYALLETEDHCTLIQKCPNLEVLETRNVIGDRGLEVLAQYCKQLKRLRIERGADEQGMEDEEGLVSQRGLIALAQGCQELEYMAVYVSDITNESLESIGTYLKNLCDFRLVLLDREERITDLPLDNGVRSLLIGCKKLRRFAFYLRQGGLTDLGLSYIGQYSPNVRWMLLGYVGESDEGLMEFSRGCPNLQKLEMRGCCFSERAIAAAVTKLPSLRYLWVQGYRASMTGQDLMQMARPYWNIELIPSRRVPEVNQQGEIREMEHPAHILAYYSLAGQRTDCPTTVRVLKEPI
# T1 sequence (Q39255 1-160 partner): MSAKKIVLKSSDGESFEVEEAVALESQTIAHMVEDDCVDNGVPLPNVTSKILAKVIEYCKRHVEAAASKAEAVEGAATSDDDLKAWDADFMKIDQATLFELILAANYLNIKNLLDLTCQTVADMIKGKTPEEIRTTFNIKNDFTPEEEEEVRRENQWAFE
# T1 sequence (Q9LMA8 1-253): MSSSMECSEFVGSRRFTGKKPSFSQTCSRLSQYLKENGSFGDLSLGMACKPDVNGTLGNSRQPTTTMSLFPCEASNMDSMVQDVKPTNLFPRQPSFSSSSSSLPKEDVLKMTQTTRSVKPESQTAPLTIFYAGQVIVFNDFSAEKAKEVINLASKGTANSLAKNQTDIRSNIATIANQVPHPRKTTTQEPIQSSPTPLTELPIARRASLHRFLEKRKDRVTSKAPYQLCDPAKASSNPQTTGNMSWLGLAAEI
# From the text: (§1) (^3H)-labeled coronatine was synthesized by Amersham. Full-length Arabidopsis thaliana COI1 and ASK1 were co-expressed as a glutathione S-transferase (GST) fusion protein and an untagged protein, respectively, in Hi5 suspension insect cells. The COI1/ASK1 complex was isolated from the soluble cell lysate by glutathione affinity chromatography. After on-column tag cleavage by tobacco etch virus protease, the complex was further purified by anion exchange and gel filtration chromatography and concentrated by ultrafiltration to 12-18 mg ml^−1. Full-length JAZ substrate proteins were expressed as 6×His-fusion proteins in Escherichia coli and purified on Ni-NTA resin with subsequent dialysis into 20 mM Tris-HCl, pH 8.0, 200 mM NaCl, and 10% glycerol.
# (§2) Radioligand binding was assayed on purified proteins, with 2 mg COI1/ASK1 complex and JAZ proteins at a 1:3 molar ratio. […] Nonspecific binding was determined in the presence of […] coronatine. Competition binding experiments were conducted with serial dilutions of JA-Ile in the presence of 100 nM ^3H coronatine with nonspecific binding determined in the presence of […] coronatine. Total binding was determined in the presence of vehicle only. Two-point binding experiments were performed in the presence of 100 nM or 300 nM ^3H-coronatine with nonspecific binding determined in the presence of 300 mM coronatine. […]
# [2] = target: T2, full-length JAZ1 (Arabidopsis thaliana, UniProt Q9LMA8); experiment: Radioligand binding of 3H-coronatine to full-length JAZ1 alone
# T2 construct: 6xHis; made in house; host or cells: Escherichia coli
# T2 sequence (Q9LMA8 1-253): T1 sequence (Q9LMA8 1-253)
# From the text: as §1, §2
# [3] = target: T3, JAZ6F195A/COI1 (Arabidopsis thaliana, UniProt O04197+Q9C9E3, F195A); experiment: Binding of 3H-coronatine (300 nM) to JAZ6F195A/COI1; conditions: 300 nM 3H-coronatine
# T3 construct: Full-length Arabidopsis thaliana COI1 and ASK1 were co-expressed; Full-length JAZ substrate proteins were expressed as 6×His-fusion proteins in Escherichia coli; GST (cleaved yes); 6xHis; made in house; host or cells: Hi5 insect cells (COI1/ASK1); Escherichia coli (JAZ6 F195A)
# T3 sequence (O04197 1-592): T1 sequence (O04197 1-592)
# T3 sequence (Q9C9E3 1-269 F195A): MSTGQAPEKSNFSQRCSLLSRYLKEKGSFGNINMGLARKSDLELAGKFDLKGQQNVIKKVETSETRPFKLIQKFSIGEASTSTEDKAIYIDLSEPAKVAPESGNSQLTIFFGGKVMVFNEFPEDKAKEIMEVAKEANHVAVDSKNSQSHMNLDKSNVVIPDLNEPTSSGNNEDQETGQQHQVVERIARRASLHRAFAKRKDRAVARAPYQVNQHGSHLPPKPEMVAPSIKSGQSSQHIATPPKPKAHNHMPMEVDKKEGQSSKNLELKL
# T3 sequence (Q39255 1-160 partner): T1 sequence (Q39255 1-160 partner)
# From the text: as §1, §2
# [4] = target: T4, COI1 (Arabidopsis thaliana, UniProt O04197); experiment: Radioligand binding of 3H-coronatine to COI1 alone
# T4 construct: Full-length Arabidopsis thaliana COI1 and ASK1 were co-expressed; GST (cleaved yes); made in house; host or cells: Hi5 insect cells (COI1/ASK1); JAZ peptides synthetic
# T4 sequence (O04197 1-592): T1 sequence (O04197 1-592)
# T4 sequence (Q39255 1-160 partner): T1 sequence (Q39255 1-160 partner)
# From the text: as §1
# Radioligand binding was assayed on purified proteins, with 2 mg COI1/ASK1 complex and JAZ proteins at a 1:3 molar ratio. Reactions were prepared in […] final volume and in a binding buffer containing 20 mM Tris-HCl 200 mM NaCl, and 10% glycerol. Saturation binding experiments were conducted with serial dilutions of 3H-coronatine in binding buffer. Nonspecific binding was determined in the presence of […] coronatine. Competition binding experiments were conducted with serial dilutions of JA-Ile in the presence of 100 nM ^3H coronatine with nonspecific binding determined in the presence of […] coronatine. Total binding was determined in the presence of vehicle only. Two-point binding experiments were performed in the presence of 100 nM or 300 nM ^3H-coronatine with nonspecific binding determined in the presence of […] coronatine. Following incubation with mixing at 4° C., all samples were collected with a cell harvester (Brandel, Gaithersburg, Md.) on polyethyleneimine (Sigma)-treated filters. […] Saturation binding experiments were analyzed by nonlinear regression, competition binding experiments by nonlinear regression with Ki calculation as described previously (Cheng 1973), and concentration-response data by sigmoidal dose-response curve fitting, all using GraphPad Prism version 4.00 for MacOSX.
# [5] = target: T5, full-length JAZ6 (Arabidopsis thaliana, UniProt Q9C9E3); experiment: Radioligand binding of 3H-coronatine to full-length JAZ6 alone
# T5 construct: 6xHis; made in house; host or cells: Escherichia coli
# T5 sequence (Q9C9E3 1-269): T3 sequence (Q9C9E3 1-269 F195A) with A195F
# From the text: as §1, §2
compound,measurement,setting,value
CC[C@H]1C=C(C(=O)N[C@@]2(C(=O)O)C[C@@H]2CC)[C@H]2CCC(=O)[C@H]2C1 [coronatine],Binding affinity for COI1/JAZ1 complex,[1],high affinity
same,Kd,"[1]; COI1/JAZ1 complex, listed as 3H-coronatine",68 nM and 48 nM
same,Binding affinity for JAZ1 alone,[2],minimal binding affinity
same,Binding affinity for JAZ1 alone,[2]; listed as 3H-coronatine,no appreciable binding affinity
same,High affinity interaction with COI1/JAZ6 after mutation of the conserved phenylalanine to alanine,[3],abolish the high affinity interaction
same,Specific binding to COI1 alone,[4]; 300 nM coronatine,< 2%
same,Binding affinity for COI1 alone,[4],minimal binding affinity
same,Binding affinity for COI1 alone,[4]; listed as 3H-coronatine,no appreciable binding affinity
same,Binding affinity for JAZ6 alone,[5],minimal binding affinity
same,Binding affinity for JAZ6 alone,[5]; listed as 3H-coronatine,no appreciable binding affinity
